In PubChem BioAssay (NCI):
Where “and” joins values, the source holds several entries; their conditions need not be identical. Equal values may be shown once.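 1) Cells in 96-well plates. 2) Compound, 48 h, 5 concentrations. 3) Linear interpolation between surrounding doses. 4) Unreached endpoint = highest concentration. GI50 = concentration required for 50% inhibition of growth. TGI: concentration producing complete growth inhibition.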

Experiments:
Assay in all cases: inhibition of tumour cell growth, NCI panel, 48 h
[1] = tested on: RXF 393 renal
[2] = tested on: UACC-62 melanoma
[3] = tested on: SNB-75 CNS
[4] = tested on: SNB-19 CNS
[5] = tested on: NCI-H522 lung
[6] = tested on: SK-MEL-5 melanoma
[7] = tested on: SK-OV-3 ovarian
[8] = tested on: NCI-H23 lung
[9] = tested on: OVCAR-5 ovarian
[10] = tested on: NCI-H226 lung

In the case of `CNC(=O)c1ccccc1Nc1nc(Nc2ccc3c(c2OC)CCC[C@H](N2CCN(CCO)CC2)C3)ncc1Cl`, the GI50 [1] is reported as 1.68 µM and 1.98 µM, the TGI [1] is reported as 7.3 µM and > 10 µM and the GI50 [2] is reported as 1.58 µM and 1.35 µM. For the same molecule, the TGI [2] was 4.02 µM and 3.39 µM, the GI50 [3] was 1.88 µM and 2.49 µM and the TGI [3] was 12.6 µM and > 10 µM. The GI50 [4] was 2.85 µM and 6.49 µM, the TGI [4] was 14.6 µM and > 10 µM and the GI50 [5] was 1.89 µM and 1.12 µM. For the same molecule, the TGI [5] was 10.5 µM and 4.32 µM, the GI50 [6] was 1.74 µM and 1.64 µM and the TGI [6] was 4.87 µM and 5.19 µM. The GI50 [7] was 2.98 µM and 2.47 µM, the TGI [7] was 14.4 µM and 9.23 µM and the GI50 [8] was 2.5 µM and 1.21 µM. The TGI [8] was 15 µM and > 10 µM, the GI50 [9] was 0.656 µM and 0.732 µM and the TGI [9] was 15.5 µM and > 10 µM. For the same molecule, the GI50 [10] was 7.65 µM and 2.57 µM and the TGI [10] was 20.8 µM and > 10 µM.

Molecule `CC1(C)CCC[C@]2(C)c3ccccc3C(=O)CC12` (stereo not given in full) has a GI50 [1] of 82.1 µM, a TGI [1] of over 100 µM and a GI50 [2] of 18.2 µM. The TGI [2] was over 100 µM, the GI50 [3] was 34.6 µM and the TGI [3] was over 100 µM. The GI50 [4] was 49.6 µM, the TGI [4] was over 100 µM and the GI50 [5] was 27.7 µM. The TGI [5] was 76.1 µM, the GI50 [6] was 18 µM and the TGI [6] was 46.4 µM. For the same molecule, the GI50 [7] was over 100 µM, the TGI [7] was over 100 µM and the GI50 [8] was 39.4 µM. For the same molecule, the TGI [8] was over 100 µM, the GI50 [9] was over 100 µM and the TGI [9] was over 100 µM. The GI50 [10] was 22.9 µM and the TGI [10] was over 100 µM.

`CC1SC(c2ccc(Cl)cc2Cl)N(NC(=O)C(O)c2ccccc2)C1=O` (stereo not given) showed a GI50 [1] of 42.9 µM, a TGI [1] of over 100 µM and a GI50 [2] of 24.2 µM. The TGI [2] was over 100 µM, the GI50 [3] was 32.1 µM and the TGI [3] was over 100 µM. The GI50 [4] was over 100 µM, the TGI [4] was over 100 µM and the GI50 [5] was 41.9 µM. It also gave a TGI [5] of over 100 µM, a GI50 [6] of 58.6 µM and a TGI [6] of over 100 µM. It also gave a GI50 [7] of over 100 µM, a TGI [7] of over 100 µM and a GI50 [8] of 64.1 µM. For the same molecule, the TGI [8] was over 100 µM, the GI50 [9] was over 100 µM and the TGI [9] was over 100 µM. The GI50 [10] was 44.1 µM and the TGI [10] was over 100 µM.

`O=P(O)(O)OCC1OC(n2cnc3c(NCc4ccccc4)ncnc32)C(O)C1O` (stereo not given) showed a GI50 [1] of 1.46 µM, a TGI [1] of 13.8 µM and a GI50 [2] of 5.02 µM. For the same molecule, the TGI [2] was over 100 µM, the GI50 [3] was 0.987 µM and the TGI [3] was over 44.1 µM. It also gave a GI50 [4] of 4.18 µM, a TGI [4] of over 100 µM and a GI50 [5] of 2.16 µM. It also gave a TGI [5] of 11.2 µM, a GI50 [6] of 17 µM and a TGI [6] of over 100 µM. The GI50 [7] was 2.73 µM, the TGI [7] was 11.1 µM and the GI50 [8] was 1.97 µM. The TGI [8] was 31.4 µM, the GI50 [9] was 3.11 µM and the TGI [9] was over 100 µM. For the same molecule, the GI50 [10] was 2.26 µM and the TGI [10] was 6.48 µM.

`O=C(O)c1ccc(SSc2ccc(C(=O)O)cn2)nc1` was tested, and the TGI [1] was over 100 µM, the TGI [2] was over 100 µM and the TGI [3] was over 100 µM. The TGI [4] was over 100 µM, the TGI [5] was over 100 µM and the TGI [6] was over 100 µM. For the same molecule, the TGI [7] was over 100 µM, the TGI [8] was over 100 µM and the TGI [9] was over 100 µM. It also gave a TGI [10] of over 100 µM.

Molecule `CC1=NOC(=O)/C1=C/c1ccc2c(c1)OCO2` has a TGI [1] of 30.7 µM, a TGI [2] of 43.5 µM and a TGI [3] of 57.5 µM. It also gave a TGI [4] of 95 µM, a TGI [5] of over 100 µM and a TGI [6] of over 100 µM. For the same molecule, the TGI [7] was over 100 µM, the TGI [8] was over 100 µM and the TGI [9] was over 100 µM. It also gave a TGI [10] of 49.8 µM.

`COc1c(N2CCN(CN3C(=O)C(=Nc4ccc(S(=O)(=O)Nc5ncccn5)cc4)c4cc(Cl)ccc43)C(C)C2)c(F)cc2c(=O)c(C(=O)O)cn(C3CC3)c12` (stereo not given) gave a GI50 [1] of 8.3 µM, a TGI [1] of over 50 µM and a GI50 [2] of 13.7 µM. The TGI [2] was 49.9 µM, the GI50 [3] was 19.1 µM and the TGI [3] was over 50 µM. It also gave a GI50 [4] of 15.7 µM, a TGI [4] of 49.4 µM and a GI50 [5] of over 50 µM. The TGI [5] was over 50 µM, the GI50 [6] was 7.99 µM and the TGI [6] was 15.8 µM. For the same molecule, the GI50 [7] was 40 µM, the TGI [7] was over 50 µM and the GI50 [8] was 8.22 µM. For the same molecule, the TGI [8] was 18.4 µM, the GI50 [9] was over 50 µM and the TGI [9] was over 50 µM. The GI50 [10] was 30 µM and the TGI [10] was over 50 µM.

For `C=C1CCC2C3(C)COC(c4ccccc4Cl)OC3CCC2(C)C1/C=C/C1=CCOC1=O` (stereo not given), the GI50 [1] was over 100 µM, the TGI [1] was over 100 µM and the GI50 [2] was 11.2 µM. It also gave a TGI [2] of over 100 µM, a GI50 [3] of over 100 µM and a TGI [3] of over 100 µM. It also gave a GI50 [4] of over 100 µM, a TGI [4] of over 100 µM and a GI50 [5] of 4.24 µM. It also gave a TGI [5] of over 100 µM, a GI50 [6] of 3.78 µM and a TGI [6] of 21 µM. It also gave a GI50 [7] of over 100 µM, a TGI [7] of over 100 µM and a GI50 [8] of 6.18 µM. The TGI [8] was over 100 µM, the GI50 [9] was over 100 µM and the TGI [9] was over 100 µM. For the same molecule, the GI50 [10] was 14.3 µM and the TGI [10] was over 100 µM.

`N#Cc1cccc(C2C3=C(COC3=O)N(CCO)c3cc4c(cc32)OCO4)c1` (stereo not given) showed a GI50 [1] of 1.26 µM, a TGI [1] of 4.54 µM and a GI50 [2] of 1.66 µM. The TGI [2] was over 50 µM, the GI50 [3] was 0.745 µM and the TGI [3] was 2.76 µM. It also gave a GI50 [4] of 2.69 µM, a TGI [4] of over 50 µM and a GI50 [5] of 0.561 µM. For the same molecule, the TGI [5] was 4.7 µM, the GI50 [6] was 1.07 µM and the TGI [6] was over 50 µM. It also gave a GI50 [7] of 2.08 µM, a TGI [7] of over 50 µM and a GI50 [8] of 3.58 µM. The TGI [8] was over 50 µM, the GI50 [9] was 7.92 µM and the TGI [9] was over 50 µM. For the same molecule, the GI50 [10] was over 50 µM and the TGI [10] was over 50 µM.

`O=C[C@@H](CO)O[C@H](C=O)n1cnc2c(=O)[nH]cnc21` showed a TGI [1] of 1470 µM, a TGI [2] of 1670 µM and a TGI [3] of 2270 µM. The TGI [4] was 2150 µM, the TGI [5] was 866 µM and the TGI [6] was 1150 µM. The TGI [7] was 1630 µM, the TGI [8] was 1530 µM and the TGI [9] was 1820 µM. It also gave a TGI [10] of 1780 µM.

`COc1cc(CNc2oc(-c3ccccc3)c(-c3ccccc3)c2C#N)cc(CN2CCN(C)CC2)c1O` showed a GI50 [1] of 1.41 µM, a TGI [1] of 2.95 µM and a GI50 [2] of 1.77 µM. It also gave a TGI [2] of 3.47 µM, a GI50 [3] of 1.33 µM and a TGI [3] of 2.94 µM. It also gave a GI50 [4] of 1.81 µM, a TGI [4] of 3.33 µM and a GI50 [5] of 1.87 µM. It also gave a TGI [5] of 3.95 µM, a GI50 [6] of 1.62 µM and a TGI [6] of 3.05 µM. The GI50 [7] was 2.22 µM, the TGI [7] was 4.06 µM and the GI50 [8] was 1.86 µM. For the same molecule, the TGI [8] was 3.79 µM, the GI50 [9] was 1.73 µM and the TGI [9] was 3.55 µM. The GI50 [10] was 2.48 µM and the TGI [10] was 6.75 µM.

`CC/C(=C/c1ccc(OC)cc1OC)[N+](=O)[O-]` was tested, and the GI50 [1] was 1.88 µM, the TGI [1] was 3.57 µM and the GI50 [2] was 1.73 µM. For the same molecule, the TGI [2] was 3.96 µM, the GI50 [3] was 3.28 µM and the TGI [3] was 16.6 µM. The GI50 [4] was 4.35 µM, the TGI [4] was 16.6 µM and the GI50 [5] was 1.79 µM. The TGI [5] was 3.58 µM, the GI50 [6] was 4.12 µM and the TGI [6] was 14 µM. The GI50 [7] was 16.7 µM, the TGI [7] was 30.4 µM and the GI50 [8] was 4.51 µM. For the same molecule, the TGI [8] was 20.1 µM, the GI50 [9] was 7.59 µM and the TGI [9] was 22.2 µM. For the same molecule, the GI50 [10] was 2.28 µM and the TGI [10] was 4.73 µM.

With `NC(=O)c1ccc(Cl)c([N+](=O)[O-])c1` the TGI [1] was over 100 µM, the TGI [2] was over 100 µM and the TGI [3] was over 100 µM. It also gave a TGI [4] of over 100 µM, a TGI [5] of over 100 µM and a TGI [6] of over 100 µM. The TGI [7] was over 100 µM, the TGI [8] was over 100 µM and the TGI [9] was over 100 µM. The TGI [10] was over 100 µM.

`N#Cc1cccc(N2C(=O)C3C4C=CC(C3C2=O)C2C(=O)N(c3cccc(C#N)c3)C(=O)C42)c1` (stereo not given) was tested, and the TGI [1] was 22.9 µM, the TGI [2] was over 100 µM and the TGI [3] was 17.6 µM. It also gave a TGI [4] of over 80.1 µM, a TGI [5] of 38.2 µM and a TGI [6] of over 63.1 µM. It also gave a TGI [7] of 34.9 µM, a TGI [8] of 52.5 µM and a TGI [9] of over 63.1 µM. For the same molecule, the TGI [10] was over 63.1 µM.
